In US10294202B2, “Pyrrolidinones as herbicides” (FMC Corporation, priority 2013, dated 2019):

Columns and labels:
sprangletop, Brdd. = test: Test F flood (paddy) test; format: in vivo, Leptochloa fascicularis; settings: 21 d, scale 0-100
Text: (§1) Three plastic pots (ca. 16-cm diameter) per rate were partially filled with sterilized Tama silt loam soil comprising a 35:50:15 ratio of sand, silt and clay and 2.6% organic matter. Separate plantings for each of the three pots were as follows. Seeds from the U.S. of monochoria (Monochoria vaginalis), sedge, umbrella (small-flower umbrella sedge, Cyperus difformis), bulrush, […] bulrush, Scirpus juncoides), and […] (purple […] coccinea), were planted into one 16-cm pot for each rate. Seeds from the U.S. of flatsedge, rice (rice flatsedge, Cyperus iria), sprangletop, Brdd. (bearded sprangletop, Leptochloa fascicularis), one stand of 9 or 10 water seeded rice seedlings (Rice, W.S. Jap, Oryza sativa cv. 'Japonica-[…]' or Rice, W.S. Ind, 'Indica'), and two stands of 3 or 4 seedlings of rice, transplanted (transplanted rice, Oryza sativa cv. 'Japonica-[…]') were planted into one 16-cm pot for each rate. Seeds from the U.S. of barnyardgrass (Echinochloa crus-galli), […] (common […], Alisma plantago-aquatica), and watergrass, late (late watergrass, Echinochloa oryzicola) were planted into one 16-cm pot for each rate. Plantings were sequential so that crop and weed species were at the 2.0 to 2.5-leaf stage at time of treatment. Potted plants were grown in a greenhouse with day/night temperature settings of 30/27° C., and supplemental balanced lighting was provided to maintain a 16-h photoperiod. Test pots were maintained in the greenhouse until test completion. At time of treatment, test pots were flooded to 3 cm above the soil surface, treated by application of test compounds directly to the paddy water, and then maintained at that water depth for the duration of the test. Effects of treatments on rice and weeds were visually evaluated by comparison to untreated controls after 21 d. Plant response ratings, summarized in Table F, are based on a scale of 0 to 100 where 0 is no effect and 100 is complete control. A dash (-) response means no test result.

rice, transplanted = test: Test F flood (paddy) test; format: in vivo, Oryza sativa cv. Japonica—M202; settings: 21 d, scale 0-100
Text: as §1

bluegrass = test: Test D pre-/postemergence herbicide test; format: in vivo, Poa annua; settings: for Plant response rating: Bluegrass, scale 0 to 100; for Plant response rating, Bluegrass: scale 0 to 100 (0 no effect, 100 complete control)
Text: (§2) Seeds of plant species selected from bluegrass (annual bluegrass, Poa annua), blackgrass (Alopecurus myosuroides), canarygrass (littleseed canarygrass, Phalaris minor), chickweed (common chickweed, Stellaria media), galium (catchweed bedstraw, Galium aparine), bromegrass, downy (downy bromegrass, Bromus tectorum), field poppy (Papaver rhoeas), field violet (Viola arvensis), foxtail, green (green foxtail, Setaria viridis), deadnettle (henbit deadnettle, Lamium amplexicaule), ryegrass, Italian (Italian ryegrass, Lolium multiflorum), kochia (Kochia scoparia), lambsquarters (Chenopodium album), oilseed rape (Brassica napus), pigweed (Amaranthus retroflexus), chamomile (scentless chamomile, Matricaria inodora), Russian thistle (Salsola kali), speedwell (bird's-eye speedwell, Veronica persica), barley, spring (spring barley, Hordeum vulgare), wheat, spring (spring wheat, Triticum aestivum), buckwheat, wild (wild buckwheat, Polygonum convolvulus), mustard, wild (wild mustard, Sinapis arvensis), oat, wild (wild oat, Avena fatua), radish, wild (wild radish, Raphanus raphanistrum), […]), barley, winter (winter barley, Hordeum vulgare), and wheat, winter (winter wheat, Triticum aestivum) were planted into a silt loam soil and treated preemergence with test chemicals formulated in a non-phytotoxic solvent mixture which included a surfactant. At the same time, these species were planted in pots containing Redi-Earth® planting medium (Scotts Company, 14111 Scottslawn Road, Marysville, Ohio 43041) comprising spaghnum peat moss, vermiculite, wetting agent and starter nutrients and treated with postemergence applications of the test chemicals formulated in the same manner. Plants ranged in height from 2 to 18 cm (1- to 4-leaf stage). Treated plants and controls were maintained in a controlled growth environment for 7 to 21 days after which time all species were compared to controls and visually evaluated. Plant response ratings, summarized in Table D, are based on a scale of 0 to 100 where 0 is no effect and 100 is complete control. A dash (-) response means no test result.

ryegrass, Italian = test: Test D pre-/postemergence herbicide test; format: in vivo, Lolium multiflorum; settings: for Plant response rating: Postemergence, Ryegrass, Italian, scale 0 to 100; for Plant response rating, Ryegrass, Italian: Preemergence, scale 0 to 100 (0 no effect, 100 complete control)
Text: as §2

speedwell = test: Test D pre-/postemergence herbicide test; format: in vivo, Veronica persica; settings: for Plant response rating: Postemergence, Speedwell, scale 0 to 100; for Plant response rating, Speedwell: Preemergence, scale 0 to 100 (0 no effect, 100 complete control)
Text: as §2

Structure (SMILES)	Plant response rating, Sprangletop, Brdd. (sprangletop, Brdd.; 250 g ai/ha)	Plant response rating, Sprangletop, Brdd. (sprangletop, Brdd.; 500 g ai/ha)	Plant response rating, Rice, Transplanted (rice, transplanted; 250 g ai/ha)	Plant response rating, Rice, Transplanted (rice, transplanted; 500 g ai/ha)	Plant response rating (bluegrass; Postemergence, 16 g ai/ha)	Plant response rating (bluegrass; Postemergence, 31 g ai/ha)	Plant response rating (bluegrass; Postemergence, 62 g ai/ha)	Plant response rating (bluegrass; Postemergence, 125 g ai/ha)	Plant response rating (bluegrass; Postemergence, 250 g ai/ha)	Plant response rating, Bluegrass (bluegrass; Preemergence, 31 g ai/ha)	Plant response rating, Bluegrass (bluegrass; Preemergence, 62 g ai/ha)	Plant response rating (bluegrass; Preemergence, 250 g ai/ha)	Plant response rating (ryegrass, Italian; 16 g ai/ha)	Plant response rating (ryegrass, Italian; 31 g ai/ha)	Plant response rating (ryegrass, Italian; 62 g ai/ha)	Plant response rating (ryegrass, Italian; 125 g ai/ha)	Plant response rating (ryegrass, Italian; 250 g ai/ha)	Plant response rating, Ryegrass, Italian (ryegrass, Italian; 31 g ai/ha)	Plant response rating, Ryegrass, Italian (ryegrass, Italian; 62 g ai/ha)	Plant response rating, Ryegrass, Italian (ryegrass, Italian; 125 g ai/ha)	other results
O=C1NCC(c2cccc(C(F)(F)F)c2)C1C(=O)Nc1ccccc1F (racemic) [Compound 3]	80	85	0	0	–	–	–	–	–	–	–	–	–	–	–	–	–	–	–	–	–
O=C1NCC(c2ccc(F)c(F)c2)C1C(=O)Nc1cccc(F)c1 (racemic) [Compound 12]	–	–	–	–	0	0	0	10	10	0	0	40	0	0	0	10	15	0	0	0	Plant response rating, Bluegrass (bluegrass; Preemergence, 16 g ai/ha): 0; Plant response rating (bluegrass; Preemergence, 125 g ai/ha): 20; Plant response rating, Ryegrass, Italian (ryegrass, Italian; 250 g ai/ha): 0; Plant response rating, Ryegrass, Italian (ryegrass, Italian; 16 g ai/ha): 0; Plant response rating (speedwell; 16 g ai/ha): 0; Plant response rating (speedwell; 31 g ai/ha): 0; Plant response rating (speedwell; 62 g ai/ha): 10; Plant response rating (speedwell; 125 g ai/ha): 10; Plant response rating (speedwell; 250 g ai/ha): 25; Plant response rating, Speedwell (speedwell; 31 g ai/ha): 0; Plant response rating, Speedwell (speedwell; 62 g ai/ha): 0; Plant response rating, Speedwell (speedwell; 125 g ai/ha): 0; Plant response rating, Speedwell (speedwell; 250 g ai/ha): 100; Plant response rating, Speedwell (speedwell; 16 g ai/ha): 0
O=C1NCC(c2cc(F)c(F)c(F)c2)C1C(=O)Nc1ccccc1C(F)(F)F (racemic) [Compound 33]	–	–	–	–	0	0	0	0	0	–	–	–	0	0	0	0	0	–	–	–	Plant response rating (speedwell; 16 g ai/ha): 0; Plant response rating (speedwell; 31 g ai/ha): 0; Plant response rating (speedwell; 62 g ai/ha): 0; Plant response rating (speedwell; 125 g ai/ha): 0; Plant response rating (speedwell; 250 g ai/ha): 10
O=C1NCC(c2cc(F)c(F)c(F)c2)C1C(=O)Nc1ccccc1F (racemic) [Compound 34]	–	–	–	–	0	0	0	0	0	–	–	–	0	0	0	0	0	–	–	–	Plant response rating (speedwell; 16 g ai/ha): 0; Plant response rating (speedwell; 31 g ai/ha): 0; Plant response rating (speedwell; 62 g ai/ha): 0; Plant response rating (speedwell; 125 g ai/ha): 0; Plant response rating (speedwell; 250 g ai/ha): 30
O=C1NCC(c2cccc(C(F)(F)F)c2)C1C(=O)Nc1ccc(F)cc1F (racemic) [Compound 207]	100	100	0	0	–	–	–	–	–	0	15	30	–	–	–	–	–	0	5	5	Plant response rating, Bluegrass (bluegrass; Preemergence, 125 g ai/ha): 15; Plant response rating, Ryegrass, Italian (ryegrass, Italian; 250 g ai/ha): 15; Plant response rating, Speedwell (speedwell; 31 g ai/ha): 20; Plant response rating, Speedwell (speedwell; 62 g ai/ha): 20; Plant response rating, Speedwell (speedwell; 125 g ai/ha): 25; Plant response rating, Speedwell (speedwell; 250 g ai/ha): 30; Plant response rating, Sprangletop, Brdd. (sprangletop, Brdd.; 125 g ai/ha): 100; Plant response rating, Rice, Transplanted (rice, transplanted; 125 g ai/ha): 0
O=C1NCC(c2ccc(C(F)(F)F)c(F)c2)C1C(=O)Nc1cccc(F)c1F (racemic) [Compound 247]	95	98	0	0	–	–	–	–	–	–	–	–	–	–	–	–	–	–	–	–	Plant response rating, Sprangletop, Brdd. (sprangletop, Brdd.; 125 g ai/ha): 90; Plant response rating, Sprangletop, Brdd. (sprangletop, Brdd.; 1000 g ai/ha): 98; Plant response rating, Sprangletop, Brdd. (sprangletop, Brdd.; 2000 g ai/ha): 98; Plant response rating, Rice, Transplanted (rice, transplanted; 125 g ai/ha): 0; Plant response rating, Rice, Transplanted (rice, transplanted; 1000 g ai/ha): 10; Plant response rating, Rice, Transplanted (rice, transplanted; 2000 g ai/ha): 15
O=C1NCC(c2cccc(C(F)(F)F)c2)C1C(=O)Nc1cccc(F)c1F (stereo not shown) [Compound 241]	–	–	–	–	–	–	–	–	–	15	15	70	–	–	–	–	–	15	20	20	Plant response rating, Bluegrass (bluegrass; Preemergence, 125 g ai/ha): 45; Plant response rating, Ryegrass, Italian (ryegrass, Italian; 250 g ai/ha): 50; Plant response rating, Speedwell (speedwell; 31 g ai/ha): 10; Plant response rating, Speedwell (speedwell; 62 g ai/ha): 35; Plant response rating, Speedwell (speedwell; 125 g ai/ha): 70; Plant response rating, Speedwell (speedwell; 250 g ai/ha): 85
CN1CC(c2ccc(F)cc2)C(C(=O)Nc2cccc(F)c2F)C1=O (stereo not shown) [Compound 271]	80	95	0	15	–	–	–	–	–	–	–	–	–	–	–	–	–	–	–	–	Plant response rating, Sprangletop, Brdd. (sprangletop, Brdd.; 64 g ai/ha): 20; Plant response rating, Sprangletop, Brdd. (sprangletop, Brdd.; 125 g ai/ha): 30; Plant response rating, Rice, Transplanted (rice, transplanted; 64 g ai/ha): 0; Plant response rating, Rice, Transplanted (rice, transplanted; 125 g ai/ha): 0
